The values below come from patent publication US20170281509A1, “COMPOSITIONS AND METHODS FOR MITIGATING SKIN IRRITATION” (GOJO INDUSTRIES, INC., priority 2014, published 2017).

This assay concerns IL-8 secretion by human dermal keratinocytes. The assay can be described thus: IL-8 secretion (ELISA) in human dermal keratinocytes co-treated with irritant surfactant mixture. The following applies: FIG. 1. The assay is classed as cell-based. From the text: Interleukin 8 (IL-8) is a chemokine and proinflammatory cytokine produced by macrophages and other cell types such as epithelial cells. It is secreted from keratinocytes in skin in response to inflammatory stimuli. IL-8 is secreted and is an important mediator of the immune reaction in the innate immune system response. IL-8 overexpressed is a biomarker of skin irritation. Thus, the following method may be employed to measure the irritancy potential of an ingredient or combination of ingredients.
For Control A, human dermal keratinocytes were left untreated. No irritation is expected, and therefore Control A provided a baseline. For Control B, IL-8 was induced in human dermal keratinocytes by applying a surfactant mixture that is a combination of sodium laureth sulfate and polyquaternium-10. For all other samples, the human dermal keratinocytes were co-treated with the surfactant mixture and a composition containing the ingredient of interest. Decreased IL-8 expression reflects the ingredient's anti-irritation activity. In other words, decreased IL-8 expression reflects reduced irritancy potential.
In order to carry out the test method, an assay kit was employed that was obtained from R&D Systems: Human CXCL8/IL-8 Duoset ELISA Kit.
The following steps were followed: 1. […] Using a colorimeter, absorbance of each well in the plates was measured at 450 nanometers (nm) within 30 minutes. […]
A general note: ELISA stands for enzyme-linked immunosorbent assay.

acetyl hexapeptide-51 amide: the “effect on IL-8 secretion compared to Control B (in words)” value is listed as “reduced IL-8 secretion”.
